Results taken from paper PMC10175918 (Communications Biology, 2023).
Read-outs that look alike come from different tables or passages of the source. One block for each molecule: values may come before it.

Assays:
[1] = molecular target: T1, secretin receptor (Homo sapiens, UniProt P47872); test: cell-based; design: species or system HEK293A; AP-TGFα shedding assay, transfected GPCR plus chimeric Gα mixture, AP release as % of TPA response; conditions: HEK293-A
T1 construct: gene SCTR

[2] = molecular target: T2, G protein-coupled receptor 17 short (Homo sapiens, UniProt Q13304); test: cell-based; design: species or system HEK293A; AP-TGFα shedding assay, transfected GPCR plus chimeric Gα mixture, AP release as % of TPA response; conditions: HEK293-A
T2 construct: gene GPR17; short isoform
T2 sequence (Q13304 whole entry, canonical isoform): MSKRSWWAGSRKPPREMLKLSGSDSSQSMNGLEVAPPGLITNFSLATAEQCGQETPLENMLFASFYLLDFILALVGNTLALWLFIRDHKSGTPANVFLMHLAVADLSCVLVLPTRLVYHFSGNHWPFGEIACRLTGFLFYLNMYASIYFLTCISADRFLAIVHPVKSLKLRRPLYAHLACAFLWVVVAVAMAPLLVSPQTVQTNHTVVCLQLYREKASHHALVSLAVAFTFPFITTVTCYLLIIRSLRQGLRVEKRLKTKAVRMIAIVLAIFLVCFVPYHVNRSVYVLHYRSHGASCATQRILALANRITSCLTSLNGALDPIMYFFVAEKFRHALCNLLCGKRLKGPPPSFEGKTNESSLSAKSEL

[3] = molecular target: T3, hypocretin (orexin) receptor 2 (Homo sapiens, UniProt O43614); test: cell-based; design: species or system HEK293A; AP-TGFα shedding assay, transfected GPCR plus chimeric Gα mixture, AP release as % of TPA response; conditions: HEK293-A
T3 construct: gene HCRTR2
T3 sequence (O43614 1-444): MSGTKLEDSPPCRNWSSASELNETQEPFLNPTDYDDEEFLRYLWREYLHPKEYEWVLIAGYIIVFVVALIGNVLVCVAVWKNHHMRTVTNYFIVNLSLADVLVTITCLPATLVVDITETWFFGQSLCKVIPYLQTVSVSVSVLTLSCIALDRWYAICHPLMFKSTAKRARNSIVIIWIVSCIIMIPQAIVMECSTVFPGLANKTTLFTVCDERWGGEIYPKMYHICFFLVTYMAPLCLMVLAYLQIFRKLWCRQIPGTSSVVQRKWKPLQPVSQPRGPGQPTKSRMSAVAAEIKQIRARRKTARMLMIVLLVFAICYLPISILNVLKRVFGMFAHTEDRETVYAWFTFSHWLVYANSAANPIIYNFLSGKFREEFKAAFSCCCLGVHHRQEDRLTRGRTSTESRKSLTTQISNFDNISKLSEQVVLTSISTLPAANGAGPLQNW

[4] = molecular target: T4, purinergic receptor P2Y, G-protein coupled, 13 short (Homo sapiens, UniProt Q9BPV8); test: cell-based; design: species or system HEK293A; AP-TGFα shedding assay, transfected GPCR plus chimeric Gα mixture, AP release as % of TPA response; conditions: HEK293-A
T4 construct: gene P2RY13; short
T4 sequence (Q9BPV8 1-354): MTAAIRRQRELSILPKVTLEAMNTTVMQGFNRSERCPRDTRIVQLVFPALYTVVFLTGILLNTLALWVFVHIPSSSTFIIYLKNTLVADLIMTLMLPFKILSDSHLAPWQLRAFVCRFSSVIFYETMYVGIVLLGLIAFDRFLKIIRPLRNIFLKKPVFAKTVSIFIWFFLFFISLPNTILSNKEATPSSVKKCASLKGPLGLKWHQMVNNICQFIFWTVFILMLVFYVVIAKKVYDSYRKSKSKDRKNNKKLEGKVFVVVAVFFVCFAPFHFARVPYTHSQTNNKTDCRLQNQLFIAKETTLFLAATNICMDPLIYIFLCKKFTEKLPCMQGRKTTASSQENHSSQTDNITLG

[5] = molecular target: T5, G protein-coupled receptor 183 (Epstein-Barr Virus Induced Gene 2) (Homo sapiens, UniProt P32249); test: cell-based; design: species or system HEK293A; AP-TGFα shedding assay, transfected GPCR plus chimeric Gα mixture, AP release as % of TPA response; conditions: HEK293-A
T5 construct: gene GPR183
T5 sequence (P32249 whole entry): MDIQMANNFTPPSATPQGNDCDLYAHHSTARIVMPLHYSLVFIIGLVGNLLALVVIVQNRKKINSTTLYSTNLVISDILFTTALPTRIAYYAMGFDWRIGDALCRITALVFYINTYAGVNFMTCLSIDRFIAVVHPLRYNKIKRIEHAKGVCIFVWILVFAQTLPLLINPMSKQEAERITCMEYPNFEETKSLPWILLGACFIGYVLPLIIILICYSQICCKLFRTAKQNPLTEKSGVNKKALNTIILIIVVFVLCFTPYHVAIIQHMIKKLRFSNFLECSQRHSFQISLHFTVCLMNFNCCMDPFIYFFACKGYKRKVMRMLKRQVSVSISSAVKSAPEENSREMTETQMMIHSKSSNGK

[6] = molecular target: T6, 5-hydroxytryptamine receptor 1E (Homo sapiens, UniProt P28566); test: cell-based; design: species or system HEK293A; AP-TGFα shedding assay, transfected GPCR plus chimeric Gα mixture, AP release as % of TPA response; conditions: HEK293-A
T6 construct: gene HTR1E
T6 sequence (P28566 whole entry): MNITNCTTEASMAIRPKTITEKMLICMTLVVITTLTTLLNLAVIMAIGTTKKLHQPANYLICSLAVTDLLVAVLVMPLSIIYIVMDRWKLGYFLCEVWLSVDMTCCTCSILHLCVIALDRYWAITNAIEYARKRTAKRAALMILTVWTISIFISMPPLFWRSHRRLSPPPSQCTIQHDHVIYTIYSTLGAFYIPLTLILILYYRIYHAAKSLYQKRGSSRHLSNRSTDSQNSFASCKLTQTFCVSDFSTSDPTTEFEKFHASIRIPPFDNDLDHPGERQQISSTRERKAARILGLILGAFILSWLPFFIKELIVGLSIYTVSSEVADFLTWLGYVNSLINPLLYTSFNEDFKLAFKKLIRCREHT

[7] = molecular target: T7, chemokine (C-X3-C motif) receptor 1 (Homo sapiens, UniProt P49238); test: cell-based; design: species or system HEK293A; AP-TGFα shedding assay, transfected GPCR plus chimeric Gα mixture, AP release as % of TPA response; conditions: HEK293-A
T7 construct: gene CX3CR1
T7 sequence (P49238 1-355): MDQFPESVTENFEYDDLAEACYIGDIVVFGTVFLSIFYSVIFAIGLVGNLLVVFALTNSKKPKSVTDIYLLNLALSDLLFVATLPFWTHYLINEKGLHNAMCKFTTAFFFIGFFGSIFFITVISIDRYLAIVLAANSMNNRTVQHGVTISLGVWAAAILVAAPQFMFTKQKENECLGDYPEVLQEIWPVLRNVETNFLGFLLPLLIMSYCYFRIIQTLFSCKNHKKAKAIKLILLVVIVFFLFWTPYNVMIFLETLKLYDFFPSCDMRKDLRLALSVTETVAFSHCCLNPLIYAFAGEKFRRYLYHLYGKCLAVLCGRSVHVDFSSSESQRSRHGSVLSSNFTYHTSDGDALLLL

[8] = molecular target: T8, 348 GPCRs (Homo sapiens, UniProt Q16570); test: TGFα-shedding assay-based GPCR screening with chimeric Gα subunit proteins; assay type: cell-based; conditions: 10µM, Favipiravir 100μM
T8 construct: expressed in transfected cells; host or cells: HEK293A
T8 sequence (Q16570 1-336): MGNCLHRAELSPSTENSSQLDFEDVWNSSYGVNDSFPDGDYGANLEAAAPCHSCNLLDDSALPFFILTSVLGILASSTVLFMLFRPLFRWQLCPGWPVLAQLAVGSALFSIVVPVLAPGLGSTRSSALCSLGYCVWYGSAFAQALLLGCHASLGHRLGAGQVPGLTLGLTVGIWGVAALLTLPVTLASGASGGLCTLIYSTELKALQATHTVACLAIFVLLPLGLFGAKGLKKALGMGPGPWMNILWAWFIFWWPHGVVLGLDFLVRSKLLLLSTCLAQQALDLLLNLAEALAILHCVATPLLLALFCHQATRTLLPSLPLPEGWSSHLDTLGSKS

[9] = molecular target: T9, 348 GPCRs (Homo sapiens, UniProt Q16602); test: as above; assay type: cell-based; conditions: 10µM, Favipiravir 100μM
T9 construct: expressed in transfected cells; host or cells: HEK293A
T9 sequence (Q16602 23-461): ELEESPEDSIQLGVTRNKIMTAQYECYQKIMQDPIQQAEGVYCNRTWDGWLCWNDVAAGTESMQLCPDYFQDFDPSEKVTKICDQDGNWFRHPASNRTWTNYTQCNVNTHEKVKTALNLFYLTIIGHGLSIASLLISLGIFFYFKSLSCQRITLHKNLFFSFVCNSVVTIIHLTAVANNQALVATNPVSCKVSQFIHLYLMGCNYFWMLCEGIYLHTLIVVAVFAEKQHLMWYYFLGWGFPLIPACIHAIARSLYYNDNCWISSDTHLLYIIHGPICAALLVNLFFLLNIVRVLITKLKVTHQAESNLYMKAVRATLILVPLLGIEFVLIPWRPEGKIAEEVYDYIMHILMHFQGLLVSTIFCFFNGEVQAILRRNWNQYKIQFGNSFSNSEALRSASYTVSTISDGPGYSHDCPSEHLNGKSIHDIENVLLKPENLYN

[10] = read-out: % GPCR activation of 10μM GS441524 compared to TPA
[11] = DARC (Duffy blood group, chemokine receptor), read-out: % GPCR activation compared to TPA
[12] = CALCRL (calcitonin receptor-like receptor), read-out: % GPCR activation compared to TPA
[13] = read-out: % GPCR activation of 100μM Favipiravir compared to TPA
[14] = read-out: % GPCR activation of 10µM Molnupiravir compared to TPA
[15] = read-out: % GPCR activation of 10µM Remdesivir compared to TPA
[16] = read-out: % GPCR activation compared to TPA, DARC (Duffy blood group, chemokine receptor)
[17] = read-out: % GPCR activation compared to TPA, CALCRL (calcitonin receptor-like receptor)
[18] = read-out: % GPCR activation of 10μM Sofosbuvir compared to TPA

T1 sequence (P47872 whole entry): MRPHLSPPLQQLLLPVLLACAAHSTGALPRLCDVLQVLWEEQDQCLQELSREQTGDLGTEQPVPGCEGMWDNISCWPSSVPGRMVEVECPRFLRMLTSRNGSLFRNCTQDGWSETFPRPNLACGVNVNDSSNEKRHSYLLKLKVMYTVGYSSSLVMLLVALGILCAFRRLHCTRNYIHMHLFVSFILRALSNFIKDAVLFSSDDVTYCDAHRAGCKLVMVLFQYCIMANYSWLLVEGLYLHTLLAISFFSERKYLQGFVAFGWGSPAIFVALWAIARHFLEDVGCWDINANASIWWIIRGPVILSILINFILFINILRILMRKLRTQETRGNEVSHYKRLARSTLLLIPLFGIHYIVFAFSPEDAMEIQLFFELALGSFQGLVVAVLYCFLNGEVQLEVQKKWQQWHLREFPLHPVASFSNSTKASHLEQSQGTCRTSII

- activity at 10 µM [1, 10]: 0.894%
- activity at 10 µM [2, 10]: 2.36%
- activity at 10 µM [3, 10]: 2.17%
- activity at 10 µM [4, 10]: 0.947%
- activity at 10 µM [6, 10]: -1.38%
- activity at 10 µM [7, 10]: -0.521%
- activation at 100 µM [8, 11]: 1.78%
- activation at 100 µM [9, 12]: 0.376%
Compound: N#C[C@@]1(c2ccc3c(N)ncnn23)O[C@H](CO)[C@@H](O)[C@H]1O [GS441524]
- activity at 10 µM [5, 10]: -1.47%

- activity at 10 µM [1, 14]: -0.0837%
- activity at 10 µM [2, 14]: 0.174%
- activity at 10 µM [3, 14]: 0.477%
- activity at 10 µM [4, 14]: -3.48%
- activity at 10 µM [5, 14]: -0.842%
- activity at 10 µM [6, 14]: -0.994%
- activity at 10 µM [7, 14]: -0.579%
- activation at 100 µM [8, 11]: 0.223%
- activation at 100 µM [9, 12]: -2.18%
Compound: CC(C)C(=O)OC[C@H]1O[C@@H](n2ccc(NO)nc2=O)[C@H](O)[C@@H]1O [molnupiravir]

The next lines start with the molecule.

Compound: NC(=O)c1nc(F)cnc1O [favipiravir, 6-fluoro-3-hydroxy-2-pyrazinecarboxamide]
- activity at 100 µM [1, 13]: -0.513%
- activity at 100 µM [2, 13]: -0.501%
- activity at 100 µM [3, 13]: 0.725%
- activity at 100 µM [4, 13]: 1.7%
- activity at 100 µM [5, 13]: -1.16%
- activity at 100 µM [6, 13]: 0.555%
- activity at 100 µM [7, 13]: 0.0634%
- activation at 100 µM [8, 11]: 1.68%
- activation at 100 µM [9, 12]: -7.08%

Compound: CCC(CC)COC(=O)[C@H](C)N[P@](=O)(OC[C@H]1O[C@@](C#N)(c2ccc3c(N)ncnn23)[C@H](O)[C@@H]1O)Oc1ccccc1 [remdesivir]
- activity at 10 µM [1, 15]: -0.951%
- activity at 10 µM [2, 15]: 2.96%
- activity at 10 µM [3, 15]: 0.000265%
- activity at 10 µM [4, 15]: 2.55%
- activity at 10 µM [5, 15]: 0.482%
- activity at 10 µM [6, 15]: -0.0718%
- activity at 10 µM [7, 15]: 2.08%
- activation at 100 µM [8, 16]: 5.17%
- activation at 100 µM [9, 17]: 4.11%

Compound: CC(C)OC(=O)[C@H](C)N[P@](=O)(OC[C@H]1O[C@@H](n2ccc(=O)[nH]c2=O)[C@](C)(F)[C@@H]1O)Oc1ccccc1 [sofosbuvir]
- activity at 10 µM [1, 18]: 0.153%
- activity at 10 µM [2, 18]: 1.81%
- activity at 10 µM [3, 18]: -1.97%
- activity at 10 µM [4, 18]: -2.68%
- activity at 10 µM [5, 18]: -0.758%
- activity at 10 µM [6, 18]: -1.21%
- activity at 10 µM [7, 18]: 0.247%
- activation at 100 µM [8, 16]: -1.56%
- activation at 100 µM [9, 17]: -3.04%
